Measured values from PubChem BioAssay (NCI).
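Assay format: 96-well plates, 48-hour exposure. The concentration for 50% growth inhibition is given as GI50. Definition used: TGI = concentration required for complete inhibition of growth.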

Experiments:
Assay in all cases: inhibition of tumour cell growth, NCI panel, 48 h; in the data active means GI50 below about 0.43 µM; inactive means the rest
RXF 393 renal = tested on: RXF 393 renal
PC-3 prostate = tested on: PC-3 prostate
COLO 205 colon = tested on: COLO 205 colon
HOP-92 NSCLC = tested on: HOP-92 NSCLC
MOLT-4 leukemia = tested on: MOLT-4 leukemia
786-0 renal = tested on: 786-0 renal
NCI-H522 lung = tested on: NCI-H522 lung
SF-539 CNS = tested on: SF-539 CNS
HS 578T breast = tested on: HS 578T breast
HCT-116 colon = tested on: HCT-116 colon
CAKI-1 renal = tested on: CAKI-1 renal
KM12 colon = tested on: KM12 colon
NCI/ADR-RES ovarian = tested on: NCI/ADR-RES ovarian
LOX IMVI melanoma = tested on: LOX IMVI melanoma
SF-295 CNS = tested on: SF-295 CNS
M14 melanoma = tested on: M14 melanoma
NCI-H460 lung = tested on: NCI-H460 lung
HCC-2998 colon = tested on: HCC-2998 colon
NCI-H23 lung = tested on: NCI-H23 lung
ACHN renal = tested on: ACHN renal
TK-10 renal = tested on: TK-10 renal
SW-620 colon = tested on: SW-620 colon
OVCAR-5 ovarian = tested on: OVCAR-5 ovarian
EKVX NSCLC = tested on: EKVX NSCLC
BT-549 breast = tested on: BT-549 breast
UO-31 renal = tested on: UO-31 renal
SR leukemia = tested on: SR leukemia
SK-MEL-2 melanoma = tested on: SK-MEL-2 melanoma
A549 NSCLC = tested on: A549 NSCLC

COc1ccc(-c2cc3c(N)ncnc3o2)cc1
inactive: GI50 (RXF 393 renal) > 25 µM | GI50 (PC-3 prostate) > 25 µM | GI50 (COLO 205 colon) > 25 µM | GI50 (HOP-92 NSCLC) 17.1 µM | GI50 (MOLT-4 leukemia) > 25 µM | GI50 (786-0 renal) > 25 µM | GI50 (NCI-H522 lung) > 25 µM | GI50 (SF-539 CNS) > 25 µM | GI50 (HS 578T breast) 5.85 µM | GI50 (HCT-116 colon) > 25 µM | GI50 (CAKI-1 renal) 17.6 µM | GI50 (KM12 colon) > 25 µM | GI50 (NCI/ADR-RES ovarian) > 25 µM | GI50 (LOX IMVI melanoma) > 25 µM | GI50 (SF-295 CNS) > 25 µM | GI50 (M14 melanoma) > 19.1 µM | GI50 (NCI-H460 lung) > 25 µM | GI50 (HCC-2998 colon) > 25 µM | GI50 (NCI-H23 lung) > 25 µM | GI50 (ACHN renal) > 25 µM | GI50 (TK-10 renal) 9.44 µM | GI50 (SW-620 colon) > 25 µM | GI50 (OVCAR-5 ovarian) > 25 µM | GI50 (EKVX NSCLC) 3.59 µM | GI50 (BT-549 breast) > 25 µM | GI50 (UO-31 renal) 12.4 µM | GI50 (SR leukemia) > 25 µM | GI50 (SK-MEL-2 melanoma) > 25 µM | GI50 (A549 NSCLC) > 25 µM
> 25 µM: TGI (RXF 393 renal) | TGI (PC-3 prostate) | TGI (COLO 205 colon) | TGI (HOP-92 NSCLC) | TGI (MOLT-4 leukemia) | TGI (786-0 renal) | TGI (NCI-H522 lung) | TGI (SF-539 CNS) | TGI (HS 578T breast) | TGI (HCT-116 colon) | TGI (CAKI-1 renal) | TGI (KM12 colon) | TGI (NCI/ADR-RES ovarian) | TGI (LOX IMVI melanoma) | TGI (SF-295 CNS) | TGI (M14 melanoma) | TGI (NCI-H460 lung) | TGI (HCC-2998 colon) | TGI (NCI-H23 lung) | TGI (ACHN renal) | TGI (TK-10 renal) | TGI (SW-620 colon) | TGI (OVCAR-5 ovarian) | TGI (EKVX NSCLC) | TGI (BT-549 breast) | TGI (UO-31 renal) | TGI (SR leukemia) | TGI (SK-MEL-2 melanoma) | TGI (A549 NSCLC)
